Entries after “also recorded” stand apart in the source; their conditions may differ.
Legend:
[1] = (§1) Biochemical Assay: A variety of Ras proteins may be inhibited by compounds of the present invention (e.g., K-Ras, N-Ras, H-Ras, and mutants thereof at positions 12, 13 and 61, such as G12C, G12D, G12V, G12S, G13C, G13D, and Q61L, and others described herein). The purpose of this biochemical assay is to measure the ability of test compounds to covalently label nucleotide-loaded K-Ras isoforms. […] The sample is incubated at 25? C. for a time period of up to 24 hours prior to quenching by the addition of 10 uL of 5% Formic Acid. Quenched samples are centrifuged at 15000 rpm for 15 minutes in a benchtop centrifuge before injecting a 10 uL aliquot onto a reverse phase C4 column and eluting into the mass spectrometer with an increasing acetonitrile gradient in the mobile phase. Analysis of raw data may be carried out using Waters MassLynx MS software, with % bound calculated from the deconvoluted protein peaks for labeled and unlabeled K-Ras.
[2] = as §1; remark: listed apart in the source
[3] = as §1; remark: listed apart in the source
[4] = as §1; remark: listed apart in the source
[5] = as §1; remark: listed apart in the source
[6] = as §1; remark: listed apart in the source
[7] = as §1; remark: listed apart in the source

| SMILES | IC50 [1] | IC50 [2] | IC50 [3] | IC50 [4] | IC50 [5] | IC50 [6] | IC50 [7] |
| --- | --- | --- | --- | --- | --- | --- | --- |
| CCn1c(-c2cccnc2C(C)OC)c2c3cc(ccc31)N1CCC[C@@H](C[C@H](NC(=O)[C@H](C(C)C)N(C)C(=O)[C@H]3CCN(C(=O)C#CC(C)(C)N4CCC4)C3)C(=O)N3CCC[C@H](N3)C(=O)OCC(C)(C)C2)C1 (stereo not given in full) | > 10 µM | > 10 µM | > 10 µM | in the range around 0.055 µM | > 10 µM | > 10 µM | > 10 µM |
| C=CC(=O)N1CC[C@H](C(=O)N(C)[C@H](C(=O)N[C@H]2C[C@H]3CN(CCO3)c3ccc4c(c3)c(c(-c3cccnc3C(C)OC)n4CC)CC(C)(C)COC(=O)[C@@H]3CCCN(N3)C2=O)C(C)C)C1 (stereo not given in full) | in the range around 5.5 µM | in the range around 5.5 µM | > 10 µM | in the range around 0.55 µM | in the range around 5.5 µM | > 10 µM | > 10 µM |
| C=CC(=O)N1CCOC2(CCN(C(=O)N(C)[C@H](C(=O)N[C@H]3C[C@H]4CN(CCO4)c4ccc5c(c4)c(c(-c4cccnc4C(C)OC)n5CC)CC(C)(C)COC(=O)[C@@H]4CCCN(N4)C3=O)C(C)C)CC2)C1 (stereo not given in full) | in the range around 0.055 µM | in the range around 0.55 µM | in the range around 5.5 µM | in the range around 0.55 µM | in the range around 0.55 µM | in the range around 0.55 µM | in the range around 5.5 µM |
| CCn1c(-c2cccnc2C(C)OC)c2c3cc(ccc31)-c1cccc(c1)C[C@H](NC(=O)[C@@H](COC1CN(C(=O)C#CC(C)(C)N3CCC3)C1)C(C)C)C(=O)N1CCC[C@H](N1)C(=O)OCC(C)(C)C2 (stereo not given in full) | in the range around 5.5 µM | in the range around 5.5 µM | > 10 µM | in the range around 0.055 µM | > 10 µM | in the range around 5.5 µM | > 10 µM |
| C=CC(=O)N1CC(OC[C@H](C(=O)N[C@H]2C[C@H]3CN(CCO3)c3ccc4c(c3)c(c(-c3cccnc3C(C)OC)n4CC(F)(F)F)CC(C)(C)COC(=O)[C@@H]3CCCN(N3)C2=O)C(C)C)C1 (stereo not given in full) | in the range around 5.5 µM | in the range around 5.5 µM | > 10 µM | in the range around 0.55 µM | in the range around 5.5 µM | in the range around 5.5 µM | > 10 µM |
| CCn1c(-c2cccnc2C(C)OC)c2c3cc(ccc31)N1CCO[C@@H](C[C@H](NC(=O)[C@@H](COC3CCN(C(=O)C#CC(C)(C)N(C)C)CC3)C(C)C)C(=O)N3CCC[C@H](N3)C(=O)OCC(C)(C)C2)C1 (stereo not given in full) | in the range around 5.5 µM | > 10 µM | > 10 µM | in the range around 0.055 µM | > 10 µM | > 10 µM | > 10 µM |
| C=CC(=O)N1CC(OC[C@H](C(=O)N[C@H]2Cc3cc(cc(C(F)F)c3)-c3ccc4c(c3)c(c(-c3cccnc3C(C)OC)n4CC)CC(C)(C)COC(=O)[C@@H]3CCCN(N3)C2=O)C(C)C)C1 (stereo not given in full) | in the range around 5.5 µM | > 10 µM | > 10 µM | in the range around 5.5 µM | > 10 µM | in the range around 5.5 µM | > 10 µM |
| C=CC(=O)N1CC[C@H](C(=O)N(C)[C@H](C(=O)N[C@H]2Cc3cc(sn3)-c3ccc4c(c3)c(c(-c3cccnc3[C@H](C)OC)n4CC)CC(C)(C)COC(=O)[C@@H]3CCCN(N3)C2=O)C(C)C)C1 |  |  |  |  |  |  | in the range around 5.5 µM; also recorded: in the range around 550 nM |
| C=CC(=O)N1CC(OCC(C(=O)N[C@H]2Cc3nc(cs3)-c3ccc4c(c3)c(c(-c3cccnc3C(C)OC)n4CC)CC(C)(C)COC(=O)[C@@H]3CCCN(N3)C2=O)C(C)C)C1 (stereo not given in full) | in the range around 5.5 µM | in the range around 5.5 µM | in the range around 5.5 µM | in the range around 0.55 µM | in the range around 5.5 µM |  |  |
| C=CC(=O)N1CC[C@H](C(=O)N(C)[C@H](C(=O)N[C@H]2Cc3nc(ns3)-c3ccc4c(c3)c(c(-c3cncnc3[C@H](C)OC)n4CC)CC(C)(C)CC=C[C@@H]3CCCN(N3)C2=O)C(C)C)C1 (stereo in doubt) | > 10 µM | > 10 µM | > 10 µM | > 10 µM | > 10 µM |  |  |
| CCn1c(-c2cccnc2C(C)OC)c2c3cc(ccc31)-c1cccc(c1)C[C@H](NC(=O)CCOC1CN(C(=O)C#CC(C)(C)N(C)C)C1)C(=O)N1CCC[C@H](N1)C(=O)OCC(C)(C)C2 (stereo not given in full) | > 10 µM | > 10 µM | > 10 µM | in the range around 0.055 µM | > 10 µM |  |  |
| C=CC(=O)N1CC[C@H](C(=O)N(C)[C@H](C(=O)N[C@H]2Cc3cc(O)cc(c3)-c3ccc4c(c3)c(c(-c3cccnc3[C@H](C)OC)n4CC)CC(C)(C)COC(=O)[C@@H]3CCCN(N3)C2=O)C(C)C)C1 (atropisomer M) | in the range around 5.5 µM | in the range around 5.5 µM | in the range around 5.5 µM | in the range around 0.55 µM | in the range around 5.5 µM |  |  |
| C=CC(=O)N1CC(OCC(C(=O)N[C@H]2Cc3cccc(c3)-c3ccc4c(c3)c(c(-c3cccnc3C(C)OC)n4CC(F)(F)F)CC(C)(C)COC(=O)[C@@H]3CCCN(N3)C2=O)C(C)C)C1 (stereo not given in full) | > 10 µM | > 10 µM | > 10 µM | in the range around 5.5 µM | > 10 µM |  |  |
| C=CC(=O)N1CC[C@H](C(=O)N(C)[C@H](C(=O)N[C@H]2Cc3cccc(c3)-c3ccc4c(c3)c(c(-c3cc(C5=CCN(C)CC5)cnc3C(C)OC)n4CC)CC(C)(C)COC(=O)[C@@H]3CCCN(N3)C2=O)C(C)C)C1 (stereo not given in full) | in the range around 5.5 µM | > 10 µM | > 10 µM | in the range around 5.5 µM | > 10 µM |  |  |
| CCn1c(-c2cccnc2C(C)OC)c2c3cc(ccc31)-c1cc(cc(C(F)F)c1)C[C@H](NC(=O)C(COC1CN(C(=O)C#CC(C)(C)N(C)C)C1)C(C)C)C(=O)N1CCC[C@H](N1)C(=O)OCC(C)(C)C2 (stereo not given in full) | > 10 µM | > 10 µM | > 10 µM | in the range around 0.55 µM | > 10 µM |  |  |
| C=C(C)C(=O)N1CC(N(C)C(=O)N(C)[C@H](C(=O)N[C@H]2Cc3nc(cs3)-c3ccc4c(c3)c(c(-c3cccnc3[C@H](C)OC)n4CC)CC(C)(C)COC(=O)[C@@H]3CCCN(N3)C2=O)C(C)C)C1 (atropisomer, axis not shown) | in the range around 5.5 µM | in the range around 5.5 µM |  |  | in the range around 5.5 µM | in the range around 5.5 µM | in the range around 5.5 µM |
| CCn1c(-c2cccnc2C(C)OC)c2c3cc(ccc31)-c1cccc(c1)C[C@H](NC(=O)[C@H](C(C)C)N(C)C(=O)[C@H]1CCN(C(=O)C#CC3CCO3)C1)C(=O)N1CCC[C@H](N1)C(=O)OCC(C)(C)C2 (stereo not given in full) | in the range around 0.55 µM | in the range around 5.5 µM | in the range around 5.5 µM | < 0.01 µM | in the range around 5.5 µM |  |  |
